Publication PMC6855250 (Nature, 2019)

Target: SidJ∆N99-CaM (Legionella pneumophila, UniProt Q5ZTK6)
Sequence (Q5ZTK6 whole entry, looked up): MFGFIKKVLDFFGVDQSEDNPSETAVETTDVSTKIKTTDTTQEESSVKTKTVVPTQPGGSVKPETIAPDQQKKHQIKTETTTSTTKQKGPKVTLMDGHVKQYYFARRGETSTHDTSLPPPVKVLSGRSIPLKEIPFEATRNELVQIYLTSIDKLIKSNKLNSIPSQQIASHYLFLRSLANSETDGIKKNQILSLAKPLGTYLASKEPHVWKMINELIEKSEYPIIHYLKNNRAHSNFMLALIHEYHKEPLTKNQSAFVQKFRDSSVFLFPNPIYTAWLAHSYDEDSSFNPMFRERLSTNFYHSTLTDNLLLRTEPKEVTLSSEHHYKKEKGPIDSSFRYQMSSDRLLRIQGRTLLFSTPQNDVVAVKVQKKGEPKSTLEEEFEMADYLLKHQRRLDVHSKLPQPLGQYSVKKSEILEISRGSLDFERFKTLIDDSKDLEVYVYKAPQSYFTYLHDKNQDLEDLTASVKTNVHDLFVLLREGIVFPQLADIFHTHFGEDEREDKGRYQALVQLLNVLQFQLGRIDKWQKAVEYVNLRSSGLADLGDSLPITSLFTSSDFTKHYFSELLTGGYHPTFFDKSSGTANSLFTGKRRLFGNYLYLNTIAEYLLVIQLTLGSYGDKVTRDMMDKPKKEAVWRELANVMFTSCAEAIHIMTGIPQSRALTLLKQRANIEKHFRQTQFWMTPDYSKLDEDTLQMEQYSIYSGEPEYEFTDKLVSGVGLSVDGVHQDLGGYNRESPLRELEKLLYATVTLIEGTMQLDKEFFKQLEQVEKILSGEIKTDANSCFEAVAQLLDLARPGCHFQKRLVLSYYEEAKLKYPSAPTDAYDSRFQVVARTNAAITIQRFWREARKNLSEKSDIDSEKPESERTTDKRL

Nc1ncnc2c1ncn2[C@@H]1O[C@H](COP(=O)(O)O)[C@@H](O)[C@H]1O [AMP]
X-ray crystal structure, 3.11 Å: We observed an AMP moiety bound in a pocket formed in the CD
